In patent US9167822B2, “Antifungal compositions” (DSM IP ASSETS B.V., priority 2012, dated 2015):

What was measured:
[1] = system: Botrytis cinerea; experiment: In vitro antifungal activity, 96-well microtiter plates; type: cell-based; conditions: 25° C., day 3, 1.25 ppm natamycin, 6.25 ppm isopyrazam or both
Procedure: Subsequently, 100 μl of a Botrytis cinerea suspension prepared in PCB medium was used to inoculated each well with 2.5×10^3 spores/ml. […] After incubation of the microtiter plates at 25° C., the in vitro antifungal activity (%) of the individual active ingredients was assessed by calculating the reduction in mould growth observed in the presence of the active ingredient in comparison to the mould growth observed in the absence of the active ingredient. The expected antifungal activity (E in %) of the active ingredient combination was calculated according to the Colby equation (Colby, 1967): […]

[2] = system: Penicillium italicum; experiment: as above; type: cell-based; conditions: 25° C., day 10, 0.63 ppm natamycin, 25 ppm isopyrazam or both
Procedure: Subsequently, 100 μl of a Botrytis cinerea suspension prepared in PCB medium was used to inoculated each well with 2.5×10^3 spores/ml.
After incubation of the microtiter plates at 25° C., the in vitro antifungal activity (%) of the individual active ingredients was assessed by calculating the reduction in mould growth observed in the presence of the active ingredient in comparison to the mould growth observed in the absence of the active ingredient. The expected antifungal activity (E in %) of the active ingredient combination was calculated according to the Colby equation (Colby, 1967): E=X+Y−[(X·Y)/100] wherein X and Y are the observed antifungal activities (in %) of the individual active ingredients X and Y, respectively. If the observed antifungal activity (O in %) of the combination exceeds the expected antifungal activity (E in %) of the combination and the resulting synergy factor O/E is thus >1.0, the combined application of the active ingredients leads to a synergistic antifungal effect.
Furthermore, Penicillium italicum was used for inoculation.

With `CC(C)C1C2CCC1c1c(NC(=O)c3cn(C)nc3C(F)F)cccc12` (centres unmarked) [Isopyrazam, isopyrazam] the “Observed antifungal activity O (%)” value [1] was 0% and the “Observed antifungal activity O (%)” value [2] was 50%.
